Results: patent publication US8106055B2, “Substituted amide compounds” (Gruenenthal GmbH, priority 2007, dated 2012)
Read-outs that look alike come from different tables or passages of the source.

Assays:
[1] = target: T1, human bradykinin 1 receptor (B1R) (Homo sapiens, UniProt P46663); assay: Functional investigation on the human bradykinin 1 receptor (B1R), Ca2+ FLIPR assay in CHO K1 hB1R cells; format: cell-based; settings: test substance 10 μM; for B1R Ant. h [10 μM] % Inhibition: B1R antagonism human; for inhibition at 10 µM: CHO-K1, B1R antagonism human, read-out: B1R Ant. h [10 μM] % Inhibition
T1 construct: expressed in transfected cells; host or cells: CHO K1 cells
T1 sequence (P46663 1-353): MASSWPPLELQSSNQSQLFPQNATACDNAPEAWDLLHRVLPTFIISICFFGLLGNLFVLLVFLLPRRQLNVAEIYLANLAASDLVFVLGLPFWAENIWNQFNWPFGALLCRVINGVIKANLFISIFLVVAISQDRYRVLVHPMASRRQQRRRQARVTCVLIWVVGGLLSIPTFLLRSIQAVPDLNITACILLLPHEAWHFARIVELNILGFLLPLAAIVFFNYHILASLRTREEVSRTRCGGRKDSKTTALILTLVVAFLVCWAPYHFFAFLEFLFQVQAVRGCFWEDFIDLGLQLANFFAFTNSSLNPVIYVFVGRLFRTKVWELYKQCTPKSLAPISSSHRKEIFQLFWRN
Procedure, shortened: (§1)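 Stably transfected CHO K1 cells loaded with Fluo-4; FLIPR Ca2+ fluorescence peak (ex 488/em 540 nm). Compound added first (agonism vs Lys-Des-Arg9-bradykinin ≥50 nM human, Des-Arg9-bradykinin 10 μM rat), then after 10-20 min agonist at EC80; antagonism as % inhibition, IC50 from concentration series, n=2-3, N≥2.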

[2] = target: T2, bradykinin 1 receptor (B1R) of the rat (Rattus norvegicus, UniProt P97583); assay: Functional investigation on the rat bradykinin 1 receptor (B1R), Ca2+ FLIPR assay in CHO K1 rB1R cells; format: cell-based; settings: test substance 10 μM; for B1R Ant. r [10 μM] % Inhibition: B1R antagonism rat; for inhibition at 10 µM: CHO-K1, B1R antagonism rat, read-out: B1R Ant. r [10 μM] % Inhibition
T2 construct: expressed in transfected cells; host or cells: CHO K1 cells
T2 sequence (P97583 1-337): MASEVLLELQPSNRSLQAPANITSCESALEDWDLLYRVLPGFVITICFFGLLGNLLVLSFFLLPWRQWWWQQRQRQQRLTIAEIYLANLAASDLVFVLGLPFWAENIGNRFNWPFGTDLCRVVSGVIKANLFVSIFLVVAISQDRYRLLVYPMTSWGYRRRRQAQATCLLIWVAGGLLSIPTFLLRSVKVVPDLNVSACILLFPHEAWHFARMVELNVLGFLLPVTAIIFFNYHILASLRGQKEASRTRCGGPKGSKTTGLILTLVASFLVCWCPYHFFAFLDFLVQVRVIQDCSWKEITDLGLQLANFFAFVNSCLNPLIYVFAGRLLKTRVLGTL
Procedure, shortened: as §1

[3] = target: T3, human μ opiate receptor (Homo sapiens, UniProt P35372); assay: Affinity for the human μ opiate receptor ([3H]-naloxone displacement, CHO-K1 receptor membrane preparation, SPA); format: binding; settings: Table 3, to be read in the same way as Table 1, test concentration 1 μM; for inhibition at 1 µM: 1.5 h, read-out: μ
T3 construct: purchased PerkinElmer Life Sciences, Zaventem, Belgium RB-HOM; host or cells: CHO-K1 cells (membrane preparation)
T3 sequence (P35372 whole entry): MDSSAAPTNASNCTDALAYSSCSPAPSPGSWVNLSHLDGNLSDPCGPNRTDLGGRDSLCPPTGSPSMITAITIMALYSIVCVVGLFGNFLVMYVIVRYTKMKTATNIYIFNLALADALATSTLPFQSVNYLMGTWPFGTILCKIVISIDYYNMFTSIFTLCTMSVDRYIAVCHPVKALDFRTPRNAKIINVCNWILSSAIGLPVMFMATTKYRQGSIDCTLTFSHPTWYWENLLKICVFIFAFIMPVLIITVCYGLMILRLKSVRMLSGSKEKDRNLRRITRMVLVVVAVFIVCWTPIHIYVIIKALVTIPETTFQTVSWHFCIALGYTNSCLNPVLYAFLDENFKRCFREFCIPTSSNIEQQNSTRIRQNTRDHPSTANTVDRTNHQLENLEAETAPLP
Procedure, shortened: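 CHO-K1 membranes expressing human μ receptor incubated 90 min at room temperature with 1 nmol/l [3H]-naloxone and WGA-SPA beads in 50 mmol/l Tris-HCl, 0.06% BSA; 100 μmol/l naloxone defines non-specific binding. Values are % inhibition of specific binding at 1 μM; IC50 converted to Ki by Cheng-Prusoff.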

[4] = % inhibition compared with the maximum achievable inhibition

Molecule: O=C(COC1CCN(S(=O)(=O)c2c(Cl)cc(Cl)cc2Cl)C1)NC1CCC(C(c2ccccc2)N2CCOCC2)CC1 (stereo not drawn) [Example 685, N-(4-(morpholin(phenyl)methyl)cyclohexyl)-2-(1-(2,4,6-trichlorophenylsulfonyl)pyrrolidin-3-yloxy)acetamide]
- B1R Ant. h [10 μM] % Inhibition ([1]; Ca2+ FLIPR, CHO K1 hB1R cells): 13%
- B1R Ant. r [10 μM] % Inhibition ([2]; Ca2+ FLIPR, CHO K1 rB1R cells): 18%
- μ [3]: 3 % inhibition

Molecule: COc1cc(C)c(S(=O)(=O)N2CCCC(COCC(=O)NC3CCC(C(CCc4ccccc4)N4CCOCC4)CC3)C2)c(C)c1 (stereo not drawn) [Example 678, 2-((1-(4-methoxy-2,6-dimethylphenylsulfonyl)piperidin-3-yl)methoxy)-N-(4-(1-morpholino-3-phenylpropyl)cyclohexyl)acetamide]
- inhibition at 10 µM ([1]; Ca2+ FLIPR, CHO K1 hB1R cells): 45%
- inhibition at 10 µM ([2]; Ca2+ FLIPR, CHO K1 rB1R cells): 73%
- inhibition at 1 µM [3]: 6%

Molecule: COc1cc(C)c(S(=O)(=O)N(C)CCOCC(=O)NC2CCC(C(CCc3ccccc3)N3CCCCC3)CC2)c(C)c1 (stereo not drawn) [Example 663, 2-(2-(4-methoxy-N,2,6-trimethylphenylsulfonamido)ethoxy)-N-(4-(3-phenyl-1-(piperidin-1-yl)propyl)cyclohexyl)acetamide]
- inhibition at 10 µM ([1]; Ca2+ FLIPR, CHO K1 hB1R cells): 103%
- inhibition at 10 µM ([2]; Ca2+ FLIPR, CHO K1 rB1R cells): 95%
- inhibition at 1 µM [3]: 26%

Molecule: COc1cc(C)c(S(=O)(=O)N2CCCC(COCC(=O)NCC3CCC(C(c4ccccc4)N4CCCC4)CC3)C2)c(C)c1 (stereo not drawn) [Example 655, 2-((1-(4-methoxy-2,6-dimethylphenylsulfonyl)piperidin-3-yl)methoxy)-N-((4-(phenyl(pyrrolidin-1-yl)methyl)cyclohexyl)methyl)acetamide]
- inhibition at 10 µM ([1]; Ca2+ FLIPR, CHO K1 hB1R cells): 71%
- inhibition at 10 µM ([2]; Ca2+ FLIPR, CHO K1 rB1R cells): 74%
- inhibition at 1 µM [3]: 38%

Molecule: O=C(COCC1CCCCN1S(=O)(=O)c1c(Cl)cc(Cl)cc1Cl)NCC1CCC(C(CCc2ccccc2)N2CCCC2)CC1 (stereo not drawn) [Example 755, N-((4-(3-phenyl-1-(pyrrolidin-1-yl)propyl)cyclohexyl)methyl)-2-((1-(2,4,6-trichlorophenylsulfonyl)piperidin-2-yl)methoxy)acetamide]
- inhibition at 10 µM ([1]; Ca2+ FLIPR, CHO K1 hB1R cells): 103%
- inhibition at 10 µM ([2]; Ca2+ FLIPR, CHO K1 rB1R cells): 102%
- inhibition at 1 µM [3]: 62%

Molecule: O=C(COC1CCN(S(=O)(=O)c2c(Cl)cc(Cl)cc2Cl)C1)NC1CCC(C(CCc2ccccc2)N2CCOCC2)CC1 (stereo not drawn) [Example 666, N-(4-(1-morpholino-3-phenylpropyl)cyclohexyl)-2-(1-(2,4,6-trichlorophenylsulfonyl)pyrrolidin-3-yloxy)acetamide]
- inhibition at 10 µM ([1]; Ca2+ FLIPR, CHO K1 hB1R cells): 11%
- inhibition at 10 µM ([2]; Ca2+ FLIPR, CHO K1 rB1R cells): 5%
- inhibition at 1 µM [3]: 6%

Molecule: CN(CCOCC(=O)NC1CCC(C(c2ccccc2)N2CCCC2)CC1)S(=O)(=O)c1c(Cl)cc(C(F)(F)F)cc1Cl (stereo not drawn) [Example 630, 2-(2-(2,6-dichloro-N-methyl-4-(trifluoromethyl)phenylsulfonamido)ethoxy)-N-(4-(phenyl(pyrrolidin-1-yl)methyl)cyclohexyl)acetamide]
- inhibition at 10 µM ([1]; Ca2+ FLIPR, CHO K1 hB1R cells): 50%
- inhibition at 10 µM ([2]; Ca2+ FLIPR, CHO K1 rB1R cells): -11%
- inhibition at 1 µM [3]: 72%

Molecule: COc1cc(C)c(S(=O)(=O)N(C)CCOCC(=O)NC2CCC(C(c3ccccc3)N3CCCC3)CC2)c(C)c1 (stereo not drawn) [Example 628, 2-(2-(4-methoxy-N,2,6-trimethylphenylsulfonamido)ethoxy)-N-(4-(phenyl(pyrrolidin-1-yl)methyl)cyclohexyl)acetamide]
- inhibition at 10 µM ([1]; Ca2+ FLIPR, CHO K1 hB1R cells): 105%
- inhibition at 10 µM ([2]; Ca2+ FLIPR, CHO K1 rB1R cells): 89%
- inhibition at 1 µM [3]: 36%

Molecule: CN1CCN(C(CCc2ccccc2)C2CCN(C(=O)COCC3CCc4ccccc4N3S(=O)(=O)c3ccc(Cl)c(Cl)c3)CC2)CC1 (stereo not drawn) [Example 811, 2-((1-(3,4-dichlorophenylsulfonyl)-1,2,3,4-tetrahydroquinolin-2-yl)methoxy)-1-(4-(1-(4-methylpiperazin-1-yl)-3-phenylpropyl)piperidin-1-yl)ethanone]
- inhibition at 10 µM [1, 4]: 104%
- inhibition at 10 µM [2, 4]: 96%
- inhibition at 1 µM [3]: 20%

Molecule: COc1cc(C)c(S(=O)(=O)N2CCCC(OCC(=O)NC3CCC(C(c4ccccc4)N4CCOCC4)CC3)C2)c(C)c1 (stereo not drawn) [Example 693, 2-(1-(4-methoxy-2,6-dimethylphenylsulfonyl)piperidin-3-yloxy)-N-(4-(morpholino(phenyl)methyl)cyclohexyl)acetamide]
- inhibition at 10 µM ([1]; Ca2+ FLIPR, CHO K1 hB1R cells): 26%
- inhibition at 10 µM ([2]; Ca2+ FLIPR, CHO K1 rB1R cells): 50%
- inhibition at 1 µM [3]: 9%

Molecule: CN(CCOCC(=O)NC1CCC(C(CCc2ccccc2)N2CCOCC2)CC1)S(=O)(=O)c1c(Cl)cc(Cl)cc1Cl (stereo not drawn) [Example 636, N-(4-(1-morpholino-3-phenylpropyl)cyclohexyl)-2-(2-(2,4,6-trichloro-N-methylphenylsulfonamido)ethoxy)acetamide]
- inhibition at 10 µM ([1]; Ca2+ FLIPR, CHO K1 hB1R cells): 41%
- inhibition at 10 µM ([2]; Ca2+ FLIPR, CHO K1 rB1R cells): 16%
- inhibition at 1 µM [3]: 8%

Molecule: COc1cc(C)c(S(=O)(=O)N(C)CCOCC(=O)N2CCC(C(c3ccccc3)N3CCN(C)CC3)CC2)c(C)c1 (stereo not drawn) [Example 798, 4-methoxy-N,2,6-trimethyl-N-(2-(2-(4-((4-methylpiperazin-1-yl)(phenyl)methyl)piperidin-1-yl)-2-oxoethoxy)ethyl)benzenesulfonamide]
- inhibition at 10 µM [1, 4]: 110%
- inhibition at 10 µM [2, 4]: 100%
- inhibition at 1 µM [3]: 19%

Molecule: CN(CCOCC(=O)NC1CCC(C(CCc2ccccc2)N2CCCCC2)CC1)S(=O)(=O)c1c(Cl)cc(Cl)cc1Cl (stereo not drawn) [Example 637, N-(4-(3-phenyl-1-(piperidin-1-yl)propyl)cyclohexyl)-2-(2-(2,4,6-trichloro-N-methylphenylsulfonamido)ethoxy)acetamide]
- inhibition at 10 µM ([1]; Ca2+ FLIPR, CHO K1 hB1R cells): 85%
- inhibition at 10 µM ([2]; Ca2+ FLIPR, CHO K1 rB1R cells): 45%
- inhibition at 1 µM [3]: 35%

Molecule: COc1cc(C)c(S(=O)(=O)N2CCCCC2COCC(=O)NC2CCC(C(CCc3ccccc3)N3CCCCC3)CC2)c(C)c1 (stereo not drawn) [Example 734, 2-((1-(4-methoxy-2,6-dimethylphenylsulfonyl)piperidin-2-yl)methoxy)-N-(4-(3-phenyl-1-(piperidin-1-yl)propyl)cyclohexyl)acetamide]
- inhibition at 10 µM ([1]; Ca2+ FLIPR, CHO K1 hB1R cells): 104%
- inhibition at 10 µM ([2]; Ca2+ FLIPR, CHO K1 rB1R cells): 104%
- inhibition at 1 µM [3]: 80%

Molecule: CN(CCOCC(=O)NC1CCC(C(CCc2ccccc2)N2CCCCC2)CC1)S(=O)(=O)c1c(Cl)cccc1Cl (stereo not drawn) [Example 665, 2-(2-(2,6-dichloro-N-methylphenylsulfonamido)ethoxy)-N-(4-(3-phenyl-1-(piperidin-1-yl)propyl)cyclohexyl)acetamide]
- inhibition at 10 µM ([1]; Ca2+ FLIPR, CHO K1 hB1R cells): 94%
- inhibition at 10 µM ([2]; Ca2+ FLIPR, CHO K1 rB1R cells): 28%
- inhibition at 1 µM [3]: 18%

Molecule: N-((4-(morpholino(phenyl)methyl)cyclohexyl)methyl)-2-((1-(2,4,6-trichlorophenylsulfonyl)piperidin-3-yl)methoxy)acetamide [Example 713]
- B1R Ant. h [10 μM] % Inhibition ([1]; Ca2+ FLIPR, CHO K1 hB1R cells): −15%
- B1R Ant. r [10 μM] % Inhibition ([2]; Ca2+ FLIPR, CHO K1 rB1R cells): 16%
- μ [3]: 14 % inhibition

Molecule: COc1cc(C)c(S(=O)(=O)N(C)CCOCC(=O)NCC2CCC(C(CCc3ccccc3)N3CCOCC3)CC2)c(C)c1 (stereo not drawn) [Example 719, 2-(2-(4-methoxy-N,2,6-trimethylphenylsulfonamido)ethoxy)-N-((4-(1-morpholino-3-phenylpropyl)cyclohexyl)methyl)acetamide]
- inhibition at 10 µM ([1]; Ca2+ FLIPR, CHO K1 hB1R cells): 103%
- inhibition at 10 µM ([2]; Ca2+ FLIPR, CHO K1 rB1R cells): 101%
- inhibition at 1 µM [3]: 6%

Molecule: CN(CCOCC(=O)NCC1CCC(C(c2ccccc2)N2CCCC2)CC1)S(=O)(=O)c1c(Cl)cc(C(F)(F)F)cc1Cl (stereo not drawn) [Example 646, 2-(2-(2,6-dichloro-N-methyl-4-(trifluoromethyl)phenylsulfonamido)ethoxy)-N-((4-(phenyl(pyrrolidin-1-yl)methyl)cyclohexyl)methyl)acetamide]
- inhibition at 10 µM ([1]; Ca2+ FLIPR, CHO K1 hB1R cells): 60%
- inhibition at 10 µM ([2]; Ca2+ FLIPR, CHO K1 rB1R cells): 15%
- inhibition at 1 µM [3]: 49%
